Reference: article PMC11063903, “Engineering a human P2X2 receptor with altered ligand selectivity in yeast” (The Journal of Biological Chemistry, 2024)

Columns and labels:
[1] = target: T1, P2X2 F303L (Homo sapiens, UniProt Q9UBL9, F303L); test: Site-saturation screen of ligand-binding domain with ATP, F303L; type: cell-based; conditions: 500 μM ATP, ± sd
T1 construct: expressed in transfected cells; host or cells: Saccharomyces cerevisiae BY4741 derivative, genome-integrated, galactose-inducible
Text: (§1) The yeast P2X2 screening platform poses an opportunity to probe the structure-function of the ligand-binding domain in detail. The conserved P2X “NFR” motif at residues 300 to 302 is directly involved in bonding to the ATP triphosphate moiety ([41]), so we mutagenized residues at or near this motif (298–304), ultimately covering 133 variants (7 sites, 19 residues each). […] We compared our results to phylogenetic data based on a multiple sequence alignment (MSA) from a curated set of 419 related P2X homologs (Figs. 3B, and S5; Table S1).
(§2) Figure 3 Structure-function analysis of the ligand binding domain.A, heat map summarizing the screening data of ATP with seven site-saturation libraries surrounding the NFR-motif. B, sequence-logo plot of the mutagenized residues and percent identity scores as determined from MSA. C, homology model of P2X2 colored by sequence conservation as calculated from a multiple sequence alignment of 419 related P2X genes. Conservation is scored on a log scale where maroon is more conserved and blue is less conserved. D, ATP in the ligand-binding pocket of P2X2. […]
(§3) GCaMP assays were performed as follows. […] Cells were loaded onto a black, clear bottom microplate and imaged on a FlexStation3 plate reader. […] Fluorescence was measured with an excitation at 485 nm, and emission 525 nm. […] For strains with mScarlet, fluorescence was read with excitation 570 nm/emission 610 nm. […]

[2] = target: T2, P2X2 N300S (Homo sapiens, UniProt Q9UBL9, N300S); test: Site-saturation screen of ligand-binding domain with ATP, N300S; type: cell-based; conditions: 500 μM ATP, ± sd
T2 construct: expressed in transfected cells; host or cells: S. cerevisiae BY4741 background
Text: as §1, §2, §3

[3] = target: T3, P2X2 A304Y (Homo sapiens, UniProt Q9UBL9, A304Y); test: Site-saturation screen of ligand-binding domain with ATP, A304Y; type: cell-based; conditions: 500 μM ATP, ± sd
T3 construct: expressed in transfected cells; host or cells: Saccharomyces cerevisiae BY4741 derivative, genome-integrated, galactose-inducible
Text: as §1, §2, §3

[4] = tested on: Crz1p nuclear localization (calcineurin pathway) in WT-P2X2 strain; test: GFP-Crz1p nuclear localization in P2X2 yeast after ATP injection; type: cell-based, S. cerevisiae; conditions: five minutes after ATP injection, 200 μM ATP (f.c.)
Text: As further validation of P2X2 function in yeast, we sought to investigate whether P2X2 could trigger the calcineurin pathway, which is a native pathway controlled by calcium. After intracellular calcium levels rise, calcineurin regulates the nuclear localization of transcription factor Crz1p ([27]). To test if unnatural ion channels could activate this pathway, a GFP-tagged Crz1p was co-expressed with P2X2 in yeast. […] The degree of nuclear localization was double that of a negative control mutant P2X receptor.
Yeast strains EG.y156 WT-P2X2 or EG.y66 broken-P2X2 were transformed with EG.B723 GFP-tagged Crz1p. Yeast were cultured and induced as previously described. Cells were loaded onto a cell imaging microplate (Eppendorf, cat. no. 0030741030) that was pre-treated with Poly-D-lysine (50 μg/ml). Cells (50 μl) were attached to the plate for 30 min at room temperature, and wells were then gently washed three times with media to remove non-adherent cells. Cells were resuspended in 100 μl and imaged on a Cytation 5 Cell Imaging Multi-Mode reader. Cells were imaged before injection with the appropriate substrate, immediately after injection, and 5 or 10 min after injection. […] Nuclear localization events were automatically counted in Ilastik (https://www.ilastik.org/). Percent nuclear localization was counted as nuclear localization events divided by total cells.

[5] = target: T4, P2X2 F303Y (Homo sapiens, UniProt Q9UBL9, F303Y); test: Fast GCaMP-mScarletI assay in yeast, P2X2 F303Y; type: cell-based; conditions: site-saturation screen, 500 μM ATP, ± sd
T4 construct: expressed in transfected cells; host or cells: S. cerevisiae BY4741 background
T4 sequence (Q9UBL9 1-471 F303Y): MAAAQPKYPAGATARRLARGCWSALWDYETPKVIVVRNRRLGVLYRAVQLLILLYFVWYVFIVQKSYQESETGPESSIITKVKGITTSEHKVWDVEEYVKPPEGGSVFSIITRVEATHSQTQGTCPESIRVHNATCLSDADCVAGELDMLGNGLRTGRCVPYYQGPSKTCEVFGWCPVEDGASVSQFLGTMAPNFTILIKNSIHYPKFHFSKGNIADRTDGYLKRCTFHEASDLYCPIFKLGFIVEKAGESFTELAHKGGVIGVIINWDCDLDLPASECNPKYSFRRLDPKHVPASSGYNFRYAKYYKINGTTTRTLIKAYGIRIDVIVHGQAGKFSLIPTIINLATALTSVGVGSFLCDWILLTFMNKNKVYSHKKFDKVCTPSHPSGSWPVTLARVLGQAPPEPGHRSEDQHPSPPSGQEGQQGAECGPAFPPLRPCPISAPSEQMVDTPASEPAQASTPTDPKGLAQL

T2 sequence (Q9UBL9 whole entry N300S, the tested form may be a part): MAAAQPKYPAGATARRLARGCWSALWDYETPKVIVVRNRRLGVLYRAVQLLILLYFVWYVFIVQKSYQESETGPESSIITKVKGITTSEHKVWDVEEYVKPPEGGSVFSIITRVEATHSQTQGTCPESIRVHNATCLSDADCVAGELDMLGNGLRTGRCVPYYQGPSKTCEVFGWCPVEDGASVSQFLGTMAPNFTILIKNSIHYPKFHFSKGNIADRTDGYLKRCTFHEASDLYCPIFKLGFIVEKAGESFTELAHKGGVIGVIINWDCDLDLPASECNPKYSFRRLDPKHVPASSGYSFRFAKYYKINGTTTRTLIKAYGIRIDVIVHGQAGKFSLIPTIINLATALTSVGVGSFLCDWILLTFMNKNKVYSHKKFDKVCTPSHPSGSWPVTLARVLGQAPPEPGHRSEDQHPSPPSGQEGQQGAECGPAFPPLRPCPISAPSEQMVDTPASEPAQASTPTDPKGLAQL
T1 sequence (Q9UBL9 whole entry F303L, the tested form may be a part): as the sequence (Q9UBL9 whole entry N300S, the tested form may be a part) above, with S300N, F303L counted along it
T3 sequence (Q9UBL9 whole entry A304Y, the tested form may be a part): as the sequence (Q9UBL9 whole entry N300S, the tested form may be a part) above, with S300N, A304Y counted along it

Nc1ncnc2c1ncn2[C@@H]1O[C@H](COP(=O)(O)OP(=O)(O)OP(=O)(O)O)[C@@H](O)[C@H]1O [ATP]
signal, % of WT signaling [1]: 108 ± 89% | signal, % of WT signaling [2]: 151 ± 16% | signal, % of WT signaling [3]: 52 ± 10% | degree of Crz1p nuclear localization relative to negative control mutant P2X receptor [4]: double | signal, % of WT signaling [5]: 113 ± 45%
